Data on four compounds can be found in paper PMC11817610, “Stereoselective Synthesis and Biological Evaluation of Perhydroquinoxaline-Based κ Receptor Agonists” (International Journal of Molecular Sciences, 2025).

Like-named read-outs stand apart in the source and are kept apart here.

For data set [1], the target named is T1, σ2 receptor (Rattus norvegicus, UniProt Q5U3Y7).
T1 construct: The thawed rat liver membrane preparation; tissue Harlan-Winkelmann, Borchen, Germany; host or cells: rat liver membrane homogenate
T1 sequence (Q5U3Y7 1-176): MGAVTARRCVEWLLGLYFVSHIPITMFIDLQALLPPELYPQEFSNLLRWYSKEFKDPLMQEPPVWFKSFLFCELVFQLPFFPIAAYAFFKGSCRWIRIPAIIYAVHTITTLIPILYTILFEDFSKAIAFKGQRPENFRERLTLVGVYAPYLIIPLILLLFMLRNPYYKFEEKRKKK
To be noted: read-out: Ki σ2 Receptor; [3H]DTG, rat liver membranes; cited from earlier work.

In data set [2] the target is T2, σ1 receptor (Cavia porcellus, UniProt Q60492). To be noted: [3H]-(+)-pentazocine, guinea pig brain membranes; cited from earlier work.
T2 sequence (Q60492 whole entry): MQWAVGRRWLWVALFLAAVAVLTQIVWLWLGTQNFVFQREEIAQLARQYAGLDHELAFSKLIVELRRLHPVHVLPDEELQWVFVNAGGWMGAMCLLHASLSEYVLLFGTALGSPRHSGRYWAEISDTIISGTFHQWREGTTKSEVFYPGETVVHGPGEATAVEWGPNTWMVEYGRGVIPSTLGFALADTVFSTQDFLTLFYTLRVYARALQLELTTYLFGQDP
Data set [3] deals with T3, δ receptor (Rattus norvegicus, UniProt P33533).
T3 construct: The thawed rat brain membrane preparation (about 75 μg of the protein) was incubated; tissue Harlan-Winkelmann, Borchen, Germany; host or cells: rat brain membrane homogenate
T3 sequence (P33533 whole entry): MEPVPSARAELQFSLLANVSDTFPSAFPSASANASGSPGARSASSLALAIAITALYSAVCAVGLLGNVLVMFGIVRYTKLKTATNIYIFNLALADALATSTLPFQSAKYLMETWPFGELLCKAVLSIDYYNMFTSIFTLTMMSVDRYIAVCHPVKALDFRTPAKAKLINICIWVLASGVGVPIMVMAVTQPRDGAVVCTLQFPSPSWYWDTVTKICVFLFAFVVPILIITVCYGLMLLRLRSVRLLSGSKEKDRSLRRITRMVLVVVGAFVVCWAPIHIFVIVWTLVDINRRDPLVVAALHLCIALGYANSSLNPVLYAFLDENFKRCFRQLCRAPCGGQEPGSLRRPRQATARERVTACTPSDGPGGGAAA
On the set-up: method as in PMID 25062506. The following applies: test compound 1 μM, [3H]DPDPE, rat brain membranes; cited from earlier work.

Data set [4] concerns the target T4, μ receptor (Cavia porcellus, UniProt A0ACM8Q262). Details: method as in PMID 25062506. To be noted: [3H]DAMGO, guinea pig brain membranes; cited from earlier work.
The target of data set [5] is T4, μ receptor. Nature of the data set: μ receptor radioligand binding assay with [3H]DAMGO, guinea pig brain membranes.
The target of data set [6] is T2, σ1 receptor. Nature of the data set: σ1 receptor radioligand binding assay with [3H]-(+)-pentazocine, guinea pig brain membranes. The following applies: read-out: Ki ± SEM σ1 Receptor.
The next data set deals with κ receptor (Cavia porcellus, UniProt P41144). Nature of the data set: κ receptor radioligand binding assay with [3H]U-69,593, guinea pig brain membranes.
Sequence of κ receptor (P41144 whole entry): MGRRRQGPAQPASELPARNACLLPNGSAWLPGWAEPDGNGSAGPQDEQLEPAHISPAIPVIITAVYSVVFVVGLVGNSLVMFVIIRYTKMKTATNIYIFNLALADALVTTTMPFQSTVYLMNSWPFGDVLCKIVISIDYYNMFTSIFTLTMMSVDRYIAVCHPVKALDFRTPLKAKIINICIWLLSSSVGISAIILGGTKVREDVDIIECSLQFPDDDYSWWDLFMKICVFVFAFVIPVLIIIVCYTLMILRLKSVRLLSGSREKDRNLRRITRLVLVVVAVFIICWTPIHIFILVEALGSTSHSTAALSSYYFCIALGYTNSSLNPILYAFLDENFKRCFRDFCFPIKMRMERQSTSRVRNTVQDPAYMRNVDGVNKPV
Data set [7] addresses T1, σ2 receptor. The data set is described as follows: biochemical. To be noted: read-out: inhibition of the radioligand binding, σ2 Receptor.
In data set [8] the target is T3, δ receptor. The data set is described as follows: δ receptor radioligand binding assay with [3H]DPDPE, rat brain membranes. To be noted: read-out: inhibition of the radioligand binding, δ Receptor.
Another data set concerns the target human serum albumin (Homo sapiens, UniProt P02768). The data set is described as follows: in vitro. To be noted: plasma.
The conditions of data set [9]: mouse, microsomes, 1.5 h.
A short description of a further data set: physchem. To be noted: pH 7.4.

T4 sequence (A0ACM8Q262 1-400): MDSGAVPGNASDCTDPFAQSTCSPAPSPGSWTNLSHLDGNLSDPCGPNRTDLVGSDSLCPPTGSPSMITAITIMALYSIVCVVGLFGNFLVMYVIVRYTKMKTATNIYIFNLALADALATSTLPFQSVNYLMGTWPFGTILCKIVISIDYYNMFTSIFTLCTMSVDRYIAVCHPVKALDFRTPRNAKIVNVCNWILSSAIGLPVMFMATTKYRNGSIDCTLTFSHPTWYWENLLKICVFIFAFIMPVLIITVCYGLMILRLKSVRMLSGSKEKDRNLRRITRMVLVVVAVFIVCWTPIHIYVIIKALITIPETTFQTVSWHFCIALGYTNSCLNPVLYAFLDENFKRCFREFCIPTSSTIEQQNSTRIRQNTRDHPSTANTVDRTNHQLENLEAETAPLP
Sequence of human serum albumin (P02768 25-609): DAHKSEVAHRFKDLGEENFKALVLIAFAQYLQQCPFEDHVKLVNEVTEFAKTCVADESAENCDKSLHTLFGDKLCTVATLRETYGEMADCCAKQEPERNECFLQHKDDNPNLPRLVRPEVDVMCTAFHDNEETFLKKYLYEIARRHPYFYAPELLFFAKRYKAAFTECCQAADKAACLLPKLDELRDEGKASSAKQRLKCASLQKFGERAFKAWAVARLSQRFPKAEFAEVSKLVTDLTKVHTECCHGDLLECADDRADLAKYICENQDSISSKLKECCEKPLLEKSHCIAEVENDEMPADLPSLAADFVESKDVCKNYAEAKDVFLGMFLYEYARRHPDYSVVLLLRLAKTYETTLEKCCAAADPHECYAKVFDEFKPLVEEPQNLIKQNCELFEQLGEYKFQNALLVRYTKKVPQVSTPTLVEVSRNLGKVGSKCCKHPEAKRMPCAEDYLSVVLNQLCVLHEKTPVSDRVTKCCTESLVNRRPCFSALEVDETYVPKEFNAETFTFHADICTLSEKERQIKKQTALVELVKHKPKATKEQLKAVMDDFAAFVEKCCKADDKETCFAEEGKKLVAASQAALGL

On to `O=C(Cc1ccc(Cl)c(Cl)c1)N1CCN(Cc2ccccc2)C2CCCC(N3CCCC3)C21` (centres unmarked) [2a], for which the results for the Ki at σ2 receptor [1], at σ1 receptor [2] and on μ receptor [4] were 4.39 µM, 1.39 µM and 3.9 µM, respectively. For the same compound, the “inhibition of the radioligand binding, δ Receptor” value on δ receptor [3] is 39%.

For [3H]-DAMGO [reference compound], binding with μ receptor [5] (guinea pig brain membrane preparation) was characterised by a dissociation constant (Kd) of 0.00057 µM.

Take `CC(C)(C)[Si](C)(C)O[C@@H]1C[C@@H]2[C@@H]([C@@H](N3CCCC3)C1)N(C(=O)Cc1ccc(Cl)c(Cl)c1)CCN2Cc1ccccc1` (racemic) [compound 13, 1-[(4aRS,6SR,8SR,8aRS)-4-Benzyl-6-(tert-butyldimethylsilyloxy)-8-(pyrrolidin-1-yl)-decahydroquinoxalin-1-yl]-2-(3,4-dichlorophenyl)ethan-1-one]: the Ki at σ1 receptor [6] came to 0.487 µM. The inhibition at 1 µM was determined as 0% at κ receptor (read-out: inhibition of the radioligand binding, κ Receptor) and 7% at σ2 receptor [7].

Regarding `O=C(Cc1ccc(Cl)c(Cl)c1)N1CCN(Cc2ccccc2)[C@@H]2C[C@@H](O)C[C@H](N3CCCC3)[C@H]21` (racemic) [compound 14, 1-[(4aRS,6SR,8SR,8aRS)-4-Benzyl-6-hydroxy-8-(pyrrolidin-1-yl)decahydro-quinoxalin-1-yl]-2-(3,4-dichlorophenyl)ethan-1-one], the inhibition at 1 µM on δ receptor [8] amounted to 11%; on μ receptor [5] (read-out: inhibition of the radioligand binding, μ Receptor), 0%; at σ2 receptor [7], 0%. In addition, the Ki at σ1 receptor [6] was found to be 7.9 µM; at κ receptor ([3H]U-69,593, guinea pig brain membranes, with SEM n = 3, without SEM one experiment), 0.599 ± 0.217 µM. For the same compound, the fraction unbound on human serum albumin is 0.075. Further, the “selectivity for κ receptor over μ, δ, σ1 and σ2 receptors” value at κ receptor is “high selectivity”. Moreover, the “compound remaining unchanged (metabolic stability)” value in [9] was found to be 92 ± 1%. Also, the logD in the data set “physchem” amounted to 1.72 ± 0.05.
